# Measured values reported in patent US20100298437A1, “USE OF CITRULLINE FOR TREATING UNDERNUTRITION CONDITIONS” (UNIVERSITE RENE DESCARTES-PARIS 5, priority 2006, published 2010).
# Experiments:
# [1] = tested on: epitrochlearis; assay: Muscle protein synthesis (FSR) measured in vitro on isolated incubated muscle; set-up: species or system rat; conditions: for increase of muscle protein synthesis (FSR): isolated muscle of undernourished adult rats, 2.5 mM citrulline, 2 hours incubation, versus control without citrulline
# Procedure: Treatment of animals: Male Sprague-Dawley rats (Charles River Laboratoires, L'Arbresles, France) aged 3 months (n=20) are placed in individual cages in a thermostated atmosphere (23°±1° C.), and subjected to a 12 hr light/dark cycle (dark between 8 a.m.-8 p.m.).
# Acclimatization of the rats is carried out during 2 weeks, during which the spontaneous food consumption is measured. The rats are fed a standard diet (A04, UAR, Villemoisson-sur-Orge, France) containing 17% proteins, 3% lipids, 59% carbohydrates and 21% water, fibers, vitamins and minerals. The average dietary intake during this period is 28 g/day for adult rats.
# At the end of the acclimatization period, the rats are randomized in 2 groups: a control group made up of rats which are fed ad libitum (AL), and a group which is subjected to dietary restrictions during the same period: the rats are fed at a rate of 50% of spontaneous ingesta during 6 weeks with a 5% protein diet (Walrand S, Chambon-Savanovitch C, Felgines C, Chassagne J, Raul F, Normand B et al. Aging: a barrier to renutrition? Nutritional and immunologic evidence in rats. Am J Clin Nutr 2000; 72:816-824).
# Incubated isolated muscles. Muscles were incubated according to a method which had been used previously (Minet-Quinard R, Moinard C, Villie F, Vasson M P, Cynober L. Metabolic pathways implicated in the kinetic impairment of muscle glutamine homeostasis in adult and old glucocorticoid-treated rats. Am J Physiol Endocrinol Metab 2004; 287:E671-E676). Epitrochlearis is used because it is the most suitable for this type of study. […] At the end of the incubation, the muscles are collected and kept at −80° C. until the incorporation of ^13C-phenylalanine is measured by mass spectrometry in order to determine the Fractional Protein Synthesis (FSR) (Guillet C, Boirie Y, Walrand S. An integrative approach to in-vivo protein synthesis measurement: from whole tissue to specific proteins. Curr Opin Clin Nutr Metab Care 2004; 7:531-538). […]
# [2] = tested on: epitrochlearis; assay: Metabolism of citrulline by isolated incubated muscle (amino acids titrated in incubation medium); type: in vitro ADME, rat; conditions: isolated muscle of healthy or undernourished adult rats, no metabolically linked amino acid released in incubation medium (results not shown)
# Procedure: Incubated isolated muscles. Muscles were incubated according to a method which had been used previously (Minet-Quinard R, Moinard C, Villie F, Vasson M P, Cynober L. Metabolic pathways implicated in the kinetic impairment of muscle glutamine homeostasis in adult and old glucocorticoid-treated rats. Am J Physiol Endocrinol Metab 2004; 287:E671-E676). Epitrochlearis is used because it is the most suitable for this type of study. After dissection, the epitrochlearis are incubated in 3 mL Krebs-Ringer buffer (119 mM NaCl; 4.8 mM KCl; 1.25 mM MgSO4; 25 mM NaHCO3; 1.24 mM NaHPO4; 1.0 mM CaCl2; 2 mM HEPES, pH 7.4), also containing glucose (8 mM), insulin (0.01 U/ml) and bovine serum albumin (BSA) (0.1% p/v). The muscles are pre-incubated during 30 minutes at 37° C. with 95% O2: 5% CO2. The muscles are then transferred into a tube containing 3 mL incubation medium (with ^13C-phenylalanine (1 mM) with or without 2.5 mM citrulline), and are incubated during 2 hours. At the end of the incubation, the muscles are collected and kept at −80° C. until the incorporation of ^13C-phenylalanine is measured by mass spectrometry in order to determine the Fractional Protein Synthesis (FSR) (Guillet C, Boirie Y, Walrand S. An integrative approach to in-vivo protein synthesis measurement: from whole tissue to specific proteins. Curr Opin Clin Nutr Metab Care 2004; 7:531-538). […]
# [3] = tested on: P70S6kinase; assay: In vivo activation of the mTOR pathway: P70S6kinase by Western Blot in tibialis muscles of undernourished aged rats; set-up: species or system rat; conditions: tibialis muscle
# Procedure: Treatment of animals: Forty male Sprague-Dawley rats aged 19 months (Charles River, L'Arbresle, France) were used. During an acclimatization period of 2 weeks the animals were fed ad libitum with a standard diet (UARA04, Usine d'Alimentation Rationnelle, Villemoisson-sur-Orge). Measurement of the spontaneous ingesta was carried out regularly. After this period 30 rats were subjected to a 50% dietary restriction during 12 weeks. Sacrificing 10 rats, used as a control group (group R), was carried out at the end of the dietary restriction period. The other 20 animals were again fed during one week before being sacrificed. Isonitrogen and isocaloric diets were either a standard diet enriched with citrulline 5 g/kg/d (n=10, group R+CIT), or a standard diet enriched with non essential amino acids (Ala, Gly, His, Asp, Ser in an equimolar ratio) (n=10, group R+AANE). Ten rats make up the control group (A.L); they are fed ad libitum all along the study before being sacrificed. Then the rats are sacrificed. The tibialis muscles are taken and quickly frozen in liquid nitrogen, then stored at −80° C. until analysis.
# Extraction of proteins and titration: The muscles are ground in liquid nitrogen with a mortar. The thus obtained powder is weighed, and then taken again in 10 volumes of a solubilization buffer containing a cocktail of phosphatase and protease inhibitors. […]
# [4] = enteral administration, rats with intestinal insufficiency; from FR 03 08349; cited from earlier work
# [5] = undernourished aged rats, former studies of the inventors; cited from earlier work
smiles,measurement,setting,value
NC(=O)NCCC[C@H](N)C(=O)O [L-citrulline],increase of muscle protein synthesis (FSR),[1],+27%
same,increase of muscle protein synthesis (FSR),[1]; listed as citrulline,up to 30%
same,effect on protein synthesis,"[1]; isolated muscles of healthy adult rats, citrulline added in vitro",no effect
same,metabolism of citrulline by the muscle,[2]; listed as Citrulline,not metabolized
same,metabolism of citrulline by the muscle,[2]; listed as citrulline,no capacity to metabolize
same,activity of P70S6 kinase as compared with group R,"[3]; 12 weeks 50% dietary restriction, then one week diet enriched with citrulline 5 g/kg/d",+417%
same,activity of P70S6 kinase compared with control group A.L. (in words),"[3]; dietary restriction, then one week enriched diet",not being significantly different
same,body weight,[4],allowed these rats to take on weight again
same,protein synthesis level,[5],restore a protein synthesis level which is equivalent to the baseline protein synthesis level among healthy aged rats
